Reference: patent US20220056040A1, “NOVEL 3-(2-BROMO-4-ALKYNYL-6-ALKOXYPHENYL)-3-PYRROLIN-2-ONES AND THEIR USE AS HERBICIDES” (Bayer Aktiengesellschaft, priority 2019, published 2022)

What was measured:
Format in all cases: in vivo
[1] = test system: Alopecurus myosuroides; test: Pre-emergence herbicidal effect; conditions: 80 g/ha, visual score after 3 weeks vs untreated controls
Text: (§1) Seeds of monocotyledonous and dicotyledonous weed plants and crop plants are laid out in sandy loam soil in wood-fiber pots and covered with soil. The compounds of the invention, formulated in the form of wettable powders (WP) or as emulsion concentrates (EC), are then applied to the surface of the covering soil as aqueous suspension or emulsion at a water application rate equating to 600 to 800 L/ha with addition of 0.2% wetting agent. After the treatment, the pots are placed in a greenhouse and kept under good growth conditions for the trial plants. The damage to the test plants is scored visually after a test period of 3 weeks by comparison with untreated controls (herbicidal activity in percent (%): 100% activity=the plants have died, 0% activity=like control plants).

[2] = test system: Digitaria sanguinalis; test: Pre-emergence herbicidal effect; conditions: 80 g/ha, visual score after 3 weeks vs untreated controls
Text: as §1

[3] = test system: Setaria viridis; test: Pre-emergence herbicidal effect; conditions: 80 g/ha, visual score after 3 weeks vs untreated controls
Text: as §1

[4] = test system: Echinochloa crus-galli; test: Pre-emergence herbicidal effect; conditions: 80 g/ha, visual score after 3 weeks vs untreated controls
Text: as §1

[5] = test system: Avena fatua; test: Pre-emergence herbicidal effect; conditions: 80 g/ha, visual score after 3 weeks vs untreated controls
Text: as §1

[6] = test system: Lolium rigidum; test: Pre-emergence herbicidal effect; conditions: 80 g/ha, visual score after 3 weeks vs untreated controls
Text: as §1

[7] = test system: Alopecurus myosuroides; test: Post-emergence herbicidal effect; conditions: 80 g/ha, post-emergence at one-leaf stage, visual score after about 3 weeks
Procedure: (§2) Seeds of monocotyledonous and dicotyledonous weed and crop plants are laid out in sandyloam soil in wood-fiber pots, covered with soil and cultivated in a greenhouse under good growth conditions. 2 to 3 weeks after sowing, the test plants are treated at the one-leaf stage. The compounds of the invention, formulated in the form of wettable powders (WP) or as emulsion concentrates (EC), are then sprayed onto the green parts of the plants as aqueous suspension or emulsion at a water application rate equating to 600 to 800 l/ha with addition of 0.2% wetting agent. After the test plants have been left to stand in the greenhouse under optimal growth conditions for about 3 weeks, the action of the preparations is assessed visually in comparison to untreated controls (herbicidal action in percent (%): 100% activity=the plants have died, 0% activity=like control plants).

[8] = test system: Digitaria sanguinalis; test: Post-emergence herbicidal effect; conditions: 80 g/ha, post-emergence at one-leaf stage, visual score after about 3 weeks
Procedure: as §2

[9] = test system: Setaria viridis; test: Post-emergence herbicidal effect; conditions: 80 g/ha, post-emergence at one-leaf stage, visual score after about 3 weeks
Procedure: as §2

[10] = test system: Echinochloa crus-galli; test: Post-emergence herbicidal effect; conditions: 80 g/ha, post-emergence at one-leaf stage, visual score after about 3 weeks
Procedure: as §2

[11] = test system: Lolium rigidum; test: Post-emergence herbicidal effect; conditions: 80 g/ha, post-emergence at one-leaf stage, visual score after about 3 weeks
Procedure: as §2

[12] = test system: Hordeum murinum; test: Post-emergence herbicidal effect; conditions: 80 g/ha, post-emergence at one-leaf stage, visual score after about 3 weeks
Procedure: as §2

CC#Cc1cc(Br)c(C2=C(O)C3(CCC(OC(C)C)CC3)NC2=O)c(OC)c1 (stereo not drawn) [Example 1.3.09]
Pre-emergence action ALOMY (herbicidal activity in percent) [1]: 100% | Pre-emergence action DIGSA (herbicidal activity in percent) [2]: 100% | Pre-emergence action SETVI (herbicidal activity in percent) [3]: 100% | Pre-emergence action ECHCG (herbicidal activity in percent) [4]: 90% | Pre-emergence action AVEFA (herbicidal activity in percent) [5]: 100% | Pre-emergence action LOLRI (herbicidal activity in percent) [6]: 100%

CC#Cc1cc(Br)c(C2=C(OC(=O)OCC)C3(CCC(OCCOC)CC3)NC2=O)c(OC)c1 (stereo not drawn) [Example 1.3.07]
Pre-emergence action ALOMY (herbicidal activity in percent) [1]: 100% | Pre-emergence action DIGSA (herbicidal activity in percent) [2]: 100% | Pre-emergence action SETVI (herbicidal activity in percent) [3]: 100% | Pre-emergence action ECHCG (herbicidal activity in percent) [4]: 100% | Pre-emergence action AVEFA (herbicidal activity in percent) [5]: 100% | Pre-emergence action LOLRI (herbicidal activity in percent) [6]: 100%

CC#Cc1cc(Br)c(C2=C(OC(=O)OCC)C3(CCOCC3)NC2=O)c(OC)c1 [Example 1.1.03]
Post-emergence action against ALOMY (herbicidal action in percent) [7]: 80% | Post-emergence action against DIGSA (herbicidal action in percent) [8]: 100% | Post-emergence action against SETVI (herbicidal action in percent) [9]: 100% | Post-emergence action against ECHCG (herbicidal action in percent) [10]: 100% | Post-emergence action against LOLRI (herbicidal action in percent) [11]: 100%

C=CCOC1CCC2(CC1)NC(=O)C(c1c(Br)cc(C#CC)cc1OC)=C2OC(=O)OC (stereo not drawn) [Example 1.3.02]
Post-emergence action against ALOMY (herbicidal action in percent) [7]: 100% | Post-emergence action against DIGSA (herbicidal action in percent) [8]: 100% | Post-emergence action against SETVI (herbicidal action in percent) [9]: 100% | Post-emergence action against ECHCG (herbicidal action in percent) [10]: 90% | Post-emergence action against LOLRI (herbicidal action in percent) [11]: 80% | Pre-emergence action ALOMY (herbicidal activity in percent) [1]: 100% | Pre-emergence action DIGSA (herbicidal activity in percent) [2]: 100% | Pre-emergence action SETVI (herbicidal activity in percent) [3]: 100% | Pre-emergence action ECHCG (herbicidal activity in percent) [4]: 100% | Pre-emergence action AVEFA (herbicidal activity in percent) [5]: 90% | Pre-emergence action LOLRI (herbicidal activity in percent) [6]: 100%

CC#Cc1cc(Br)c(C2=C(OC(=O)OC)C3(CCC(OC(C)C)CC3)NC2=O)c(OC)c1 (stereo not drawn) [Example 1.3.11]
Pre-emergence action ALOMY (herbicidal activity in percent) [1]: 100% | Pre-emergence action DIGSA (herbicidal activity in percent) [2]: 100% | Pre-emergence action SETVI (herbicidal activity in percent) [3]: 100% | Pre-emergence action ECHCG (herbicidal activity in percent) [4]: 100% | Pre-emergence action AVEFA (herbicidal activity in percent) [5]: 90% | Pre-emergence action LOLRI (herbicidal activity in percent) [6]: 100%

CC#Cc1cc(Br)c(C2=C(OC(=O)OC)C3(CCOCC3)NC2=O)c(OC)c1 [Example 1.1.02, 3-[2-Bromo-6-methoxy-4-(prop-1-yn-1-yl)phenyl]-2-oxo-8-oxa-1-azaspiro[4.5]dec-3-en-4-yl methyl carbonate]
Post-emergence action against ALOMY (herbicidal action in percent) [7]: 100% | Post-emergence action against DIGSA (herbicidal action in percent) [8]: 100% | Post-emergence action against SETVI (herbicidal action in percent) [9]: 100% | Post-emergence action against ECHCG (herbicidal action in percent) [10]: 100% | Post-emergence action against LOLRI (herbicidal action in percent) [11]: 100% | Pre-emergence action ALOMY (herbicidal activity in percent) [1]: 90% | Pre-emergence action DIGSA (herbicidal activity in percent) [2]: 100% | Pre-emergence action SETVI (herbicidal activity in percent) [3]: 100% | Pre-emergence action ECHCG (herbicidal activity in percent) [4]: 80% | Pre-emergence action AVEFA (herbicidal activity in percent) [5]: 80% | Pre-emergence action LOLRI (herbicidal activity in percent) [6]: 100%

CC#Cc1cc(Br)c(C2=C(OC(=O)OCC)C3(CCC4(CC3)OCCO4)NC2=O)c(OC)c1 [Example 1.2.01]
Post-emergence action against ALOMY (herbicidal action in percent) [7]: 100% | Post-emergence action against HORMU (herbicidal action in percent) [12]: 100% | Post-emergence action against SETVI (herbicidal action in percent) [9]: 100% | Post-emergence action against ECHCG (herbicidal action in percent) [10]: 100% | Post-emergence action against LOLRI (herbicidal action in percent) [11]: 100% | Pre-emergence action ALOMY (herbicidal activity in percent) [1]: 90% | Pre-emergence action DIGSA (herbicidal activity in percent) [2]: 100% | Pre-emergence action SETVI (herbicidal activity in percent) [3]: 100% | Pre-emergence action ECHCG (herbicidal activity in percent) [4]: 100% | Pre-emergence action AVEFA (herbicidal activity in percent) [5]: 100% | Pre-emergence action LOLRI (herbicidal activity in percent) [6]: 100%

CC#Cc1cc(Br)c(C2=C(OC(=O)C(C)C)C3(CCOCC3)NC2=O)c(OC)c1 [Example 1.1.04]
Post-emergence action against DIGSA (herbicidal action in percent) [8]: 100%
